Reference: ChEMBL document CHEMBL1201862, “PubChem BioAssay data set” (2004)
Calls of active or inactive are those of the source.

What was measured:
[1] = nonselective StAR promoter luciferase inhibitors – cell-based, luminescence, luciferase reporter, counter-screen for LRH-1 inverse agonist project, dose response (AID 651969); type: functional
[2] = molecular target: Nuclear receptor subfamily 5 group A member 2 (Homo sapiens, UniProt O00482); type: functional, cell-based;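 note: HEK293T cells transfected with LRH-1 and a StAR promoter luciferase reporter; potency for inhibitors that lower LRH-1 driven reporter light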
[3] = molecular target: Steroidogenic factor 1 (Homo sapiens, UniProt Q13285); experiment: Counterscreen for inverse agonists of the liver receptor homolog-1 (LRH-1; NR5A2): Luminescence-based cell-based high throughput dose response assay to identify inverse agonists of the Steroidogenic Factor 1 Nuclear Receptor (SF1; NR5A1).; type: functional
[4] = molecular target: T1, Corticotropin-releasing factor receptor 2/Corticotropin-releasing factor-binding protein (Homo sapiens, UniProt P24387+Q13324); experiment: activators of CRF receptor 2 with binding protein – uHTS hits, confirmation (AID 602473); type: functional; conditions: read-out: EC50_Mean
T1 sequence (Q13324 whole entry): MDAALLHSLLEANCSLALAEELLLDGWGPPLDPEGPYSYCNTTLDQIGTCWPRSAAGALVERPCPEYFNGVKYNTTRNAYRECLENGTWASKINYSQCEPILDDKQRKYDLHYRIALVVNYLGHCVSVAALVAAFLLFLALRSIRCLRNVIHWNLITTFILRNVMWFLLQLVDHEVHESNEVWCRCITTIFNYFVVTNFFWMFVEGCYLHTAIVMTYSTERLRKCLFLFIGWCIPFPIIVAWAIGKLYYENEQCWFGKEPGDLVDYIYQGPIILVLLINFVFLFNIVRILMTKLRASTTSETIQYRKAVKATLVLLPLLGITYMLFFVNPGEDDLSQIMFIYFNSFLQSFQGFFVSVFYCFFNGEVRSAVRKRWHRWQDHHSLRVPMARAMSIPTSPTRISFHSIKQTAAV
T1 sequence (P24387 whole entry): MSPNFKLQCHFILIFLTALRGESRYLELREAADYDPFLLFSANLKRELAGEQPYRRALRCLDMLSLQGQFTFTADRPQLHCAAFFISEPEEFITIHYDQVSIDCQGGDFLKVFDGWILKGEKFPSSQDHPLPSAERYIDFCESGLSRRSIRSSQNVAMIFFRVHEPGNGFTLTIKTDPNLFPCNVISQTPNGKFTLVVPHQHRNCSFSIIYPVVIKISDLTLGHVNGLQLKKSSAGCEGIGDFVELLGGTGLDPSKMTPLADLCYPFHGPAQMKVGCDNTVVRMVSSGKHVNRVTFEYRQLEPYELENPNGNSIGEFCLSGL

[5] = blockers of CRF-binding protein–CRF-R2 complex – cell-based, uHTS hits, 384-well, dose response (AID 651639); type: functional, Homo sapiens; conditions: read-out: IC50_Mean
[6] = molecular target: T1, Corticotropin-releasing factor receptor 2/Corticotropin-releasing factor-binding protein; experiment: Dose Response confirmation of uHTS hits for small molecule antagonists of the CRF-binding protein and CRF-R2 receptor complex.; type: functional; conditions: read-out: IC50_Mean
[7] = bead-based luminescence quenchers, dual-tagged ARNT – biochemical, AlphaScreen, cherry-pick, artefact control for ARNT-TACC3 interaction inhibitor project, dose response (AID 651705); type: functional;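 note: AlphaScreen bead proximity signal that flags compounds interfering with the detection technology; potency reflects signal decrease which marks the compound as an assay artifact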
[8] = molecular target: T2, Hepatocyte nuclear factor 4-alpha (Homo sapiens, UniProt P41235); type: functional, cell-based;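 note: biochemical luminescence-based dose-response counterscreen measuring inhibition of HNF4 dimerization, run alongside a screen for blockers of ABHD5–perilipin-5 interaction; split luciferase complementation of HNF4 fusion proteins in cell lysate measuring dimerization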
T2 sequence (P41235 whole entry): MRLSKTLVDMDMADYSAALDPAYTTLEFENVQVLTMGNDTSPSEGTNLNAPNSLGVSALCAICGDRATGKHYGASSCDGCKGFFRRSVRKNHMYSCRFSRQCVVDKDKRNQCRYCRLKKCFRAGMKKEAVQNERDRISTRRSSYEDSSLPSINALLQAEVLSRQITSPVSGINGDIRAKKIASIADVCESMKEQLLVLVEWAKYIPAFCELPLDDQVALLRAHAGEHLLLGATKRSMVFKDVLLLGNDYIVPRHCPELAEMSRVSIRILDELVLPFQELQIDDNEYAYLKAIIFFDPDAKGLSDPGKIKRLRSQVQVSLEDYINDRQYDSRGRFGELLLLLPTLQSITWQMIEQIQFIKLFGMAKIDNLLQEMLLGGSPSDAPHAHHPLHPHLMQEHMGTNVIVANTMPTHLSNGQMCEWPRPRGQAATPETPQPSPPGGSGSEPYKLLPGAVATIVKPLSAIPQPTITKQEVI

[9] = molecular target: Ras and Rab interactor 1/Tyrosine-protein kinase ABL1 (Homo sapiens, UniProt P00519+Q13671); type: functional;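 note: biochemical TR-FRET dose-response test measuring inhibition of binding between Rin1 and Abl proteins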
[10] = viability of uninfected HEp-2 cells – cell-based, HTS, cytotoxicity control for RSV inhibitor project, dose response (AID 2410); type: functional; conditions: human respiratory syncytial virus
[11] = molecular target: T3, Rac GTPase-activating protein 1 (Homo sapiens, UniProt Q9H0H5); experiment: blockers of MgcRacGAP-driven Rac1 GTP hydrolysis – biochemical, ADP Hunter fluorescence, primary and confirmatory, confirmation (AID 624330); type: functional
T3 sequence (Q9H0H5 whole entry): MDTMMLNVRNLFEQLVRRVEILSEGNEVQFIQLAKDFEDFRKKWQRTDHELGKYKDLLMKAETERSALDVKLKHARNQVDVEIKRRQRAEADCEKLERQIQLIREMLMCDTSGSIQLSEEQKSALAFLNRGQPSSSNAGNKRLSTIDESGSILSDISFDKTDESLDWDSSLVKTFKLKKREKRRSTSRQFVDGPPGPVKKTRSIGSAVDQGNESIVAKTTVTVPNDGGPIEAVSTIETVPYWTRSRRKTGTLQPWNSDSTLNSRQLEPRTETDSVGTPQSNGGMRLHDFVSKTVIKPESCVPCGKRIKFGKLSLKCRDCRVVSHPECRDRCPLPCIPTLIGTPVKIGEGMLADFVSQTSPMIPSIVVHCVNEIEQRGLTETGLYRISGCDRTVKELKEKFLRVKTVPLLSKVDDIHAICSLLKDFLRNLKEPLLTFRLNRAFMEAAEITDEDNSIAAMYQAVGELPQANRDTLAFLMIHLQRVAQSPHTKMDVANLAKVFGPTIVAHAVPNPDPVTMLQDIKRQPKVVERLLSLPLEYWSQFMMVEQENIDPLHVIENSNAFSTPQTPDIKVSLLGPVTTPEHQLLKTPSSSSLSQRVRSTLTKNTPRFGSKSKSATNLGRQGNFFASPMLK

[12] = viability loss in HeLa cells – cytotoxicity control for MgcRacGAP inhibitor project, dose response (AID 624300); type: functional
[13] = molecular target: 26S proteasome non-ATPase regulatory subunit 14 (Homo sapiens, UniProt O00487); experiment: inhibition of proteasome subunit RPN11 – biochemical, fluorescence polarization, uHTS hits, confirmation (AID 602368); type: functional
[14] = molecular target: 72 kDa type IV collagenase (Homo sapiens, UniProt P08253); experiment: Dose Response validation of uHTS RPN11 inhibitor hits using a MMP-2 Fluorescence assay.; type: functional
[15] = molecular target: Prothrombin (Bos taurus, UniProt P00735); experiment: thrombin protease inhibitors – biochemical, fluorescence polarization, uHTS hits, dose response (AID 602369); type: functional
[16] = molecular target: T4, Zinc finger protein mex-5 (Caenorhabditis elegans, UniProt Q9XUB2); experiment: potency of MEX-5 RNA-binding blockers – biochemical, C. elegans, fluorescence polarization, dose response (AID 1960)
T4 sequence (Q9XUB2 whole entry): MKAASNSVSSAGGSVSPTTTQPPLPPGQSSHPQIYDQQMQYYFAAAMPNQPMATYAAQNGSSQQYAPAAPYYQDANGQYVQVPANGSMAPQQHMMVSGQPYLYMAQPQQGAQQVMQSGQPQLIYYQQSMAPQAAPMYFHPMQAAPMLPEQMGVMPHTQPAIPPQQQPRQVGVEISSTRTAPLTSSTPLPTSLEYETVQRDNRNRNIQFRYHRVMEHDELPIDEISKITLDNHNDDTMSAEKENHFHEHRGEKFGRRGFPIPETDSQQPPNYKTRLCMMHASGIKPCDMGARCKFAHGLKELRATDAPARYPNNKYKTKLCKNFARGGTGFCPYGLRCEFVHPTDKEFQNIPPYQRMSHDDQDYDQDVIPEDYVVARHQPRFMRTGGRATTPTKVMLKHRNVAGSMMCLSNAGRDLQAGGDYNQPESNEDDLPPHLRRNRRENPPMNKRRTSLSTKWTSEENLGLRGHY

[17] = molecular target: T5, RNA-binding protein pos-1 (Caenorhabditis elegans, UniProt G5EF15); experiment: disruptors of C. elegans POS-1 RNA interaction – biochemical, fluorescence polarization, dose response (AID 1964);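 note: purified POS-1 fused to maltose binding protein made in E. coli; potency of compounds blocking POS-1 binding to fluorescent RNA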
T5 sequence (G5EF15 whole entry): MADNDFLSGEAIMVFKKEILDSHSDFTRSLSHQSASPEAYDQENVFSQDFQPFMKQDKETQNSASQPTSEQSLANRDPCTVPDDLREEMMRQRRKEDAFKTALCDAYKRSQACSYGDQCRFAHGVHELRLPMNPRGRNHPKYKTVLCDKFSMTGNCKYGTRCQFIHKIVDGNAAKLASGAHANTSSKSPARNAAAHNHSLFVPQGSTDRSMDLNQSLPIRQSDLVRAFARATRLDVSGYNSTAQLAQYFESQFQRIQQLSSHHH

[18] = Counterscreen for inhibitors of Trypanosoma brucei methionyl tRNA synthetase (MetRS): Luminescence-based cell-based high throughput dose response assay to identify compounds that are cytotoxic to Jurkat human T lymphocyte cells.; type: functional
[19] = system: Escherichia coli; experiment: microbe, parasite or virus in culture
[20] = molecular target: Cytochrome P450 2C9 (Homo sapiens, UniProt P11712)
[21] = molecular target: T6, Cytochrome P450 1A2 (Homo sapiens, UniProt P05177);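 note: PubChem cytochrome P450 panel assay, CYP1A2 panel member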
T6 sequence (P05177 whole entry): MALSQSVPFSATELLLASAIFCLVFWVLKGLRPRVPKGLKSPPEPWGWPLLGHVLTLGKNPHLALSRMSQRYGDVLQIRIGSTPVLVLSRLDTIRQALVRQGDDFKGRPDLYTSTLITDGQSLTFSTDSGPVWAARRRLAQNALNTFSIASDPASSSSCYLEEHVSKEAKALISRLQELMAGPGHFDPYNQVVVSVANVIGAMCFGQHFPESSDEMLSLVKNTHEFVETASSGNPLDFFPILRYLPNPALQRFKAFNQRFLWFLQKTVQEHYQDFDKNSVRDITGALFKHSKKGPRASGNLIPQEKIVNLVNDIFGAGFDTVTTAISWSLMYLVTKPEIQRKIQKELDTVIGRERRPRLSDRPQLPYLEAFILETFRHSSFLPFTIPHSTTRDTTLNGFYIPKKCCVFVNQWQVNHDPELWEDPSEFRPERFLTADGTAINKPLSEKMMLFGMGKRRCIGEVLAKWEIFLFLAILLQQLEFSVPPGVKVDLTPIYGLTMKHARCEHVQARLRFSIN

Chain of Nuclear receptor subfamily 5 group A member 2 (O00482 whole entry): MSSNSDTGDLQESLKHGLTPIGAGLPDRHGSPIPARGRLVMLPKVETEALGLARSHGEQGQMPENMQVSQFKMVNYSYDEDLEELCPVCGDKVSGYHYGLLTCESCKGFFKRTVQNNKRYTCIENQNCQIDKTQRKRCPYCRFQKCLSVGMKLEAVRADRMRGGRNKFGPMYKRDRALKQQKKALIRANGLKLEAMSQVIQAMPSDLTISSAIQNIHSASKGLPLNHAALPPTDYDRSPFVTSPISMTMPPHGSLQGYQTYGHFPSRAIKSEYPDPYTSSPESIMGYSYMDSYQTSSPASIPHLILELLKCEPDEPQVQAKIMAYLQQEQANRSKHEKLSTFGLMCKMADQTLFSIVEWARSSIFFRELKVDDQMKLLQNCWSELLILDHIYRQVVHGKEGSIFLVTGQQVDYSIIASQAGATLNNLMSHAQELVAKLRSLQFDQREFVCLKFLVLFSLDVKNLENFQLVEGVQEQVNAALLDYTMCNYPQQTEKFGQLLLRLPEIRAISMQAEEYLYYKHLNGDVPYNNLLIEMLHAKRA
Chain of Steroidogenic factor 1 (Q13285 whole entry): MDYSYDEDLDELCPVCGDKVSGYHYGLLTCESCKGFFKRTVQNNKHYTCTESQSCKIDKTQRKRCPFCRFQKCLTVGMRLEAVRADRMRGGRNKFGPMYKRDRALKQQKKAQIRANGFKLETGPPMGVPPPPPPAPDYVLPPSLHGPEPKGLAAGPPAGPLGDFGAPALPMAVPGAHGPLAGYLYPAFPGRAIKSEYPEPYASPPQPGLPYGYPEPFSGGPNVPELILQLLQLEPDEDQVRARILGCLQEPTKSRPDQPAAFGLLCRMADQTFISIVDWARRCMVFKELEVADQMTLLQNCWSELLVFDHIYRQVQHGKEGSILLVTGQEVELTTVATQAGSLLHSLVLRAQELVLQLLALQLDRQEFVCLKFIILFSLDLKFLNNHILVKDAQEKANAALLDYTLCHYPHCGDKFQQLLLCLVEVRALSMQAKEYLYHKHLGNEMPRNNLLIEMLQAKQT
Chain of 26S proteasome non-ATPase regulatory subunit 14 (O00487 whole entry): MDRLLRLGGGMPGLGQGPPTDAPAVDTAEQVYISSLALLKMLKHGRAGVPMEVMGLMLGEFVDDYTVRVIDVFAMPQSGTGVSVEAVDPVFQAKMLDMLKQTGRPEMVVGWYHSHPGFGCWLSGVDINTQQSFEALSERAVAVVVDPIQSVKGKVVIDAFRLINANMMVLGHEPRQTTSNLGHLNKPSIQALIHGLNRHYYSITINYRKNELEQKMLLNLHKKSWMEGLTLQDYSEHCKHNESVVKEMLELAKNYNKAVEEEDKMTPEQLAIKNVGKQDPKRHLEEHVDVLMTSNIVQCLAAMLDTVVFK
Chain of 72 kDa type IV collagenase (P08253 whole entry): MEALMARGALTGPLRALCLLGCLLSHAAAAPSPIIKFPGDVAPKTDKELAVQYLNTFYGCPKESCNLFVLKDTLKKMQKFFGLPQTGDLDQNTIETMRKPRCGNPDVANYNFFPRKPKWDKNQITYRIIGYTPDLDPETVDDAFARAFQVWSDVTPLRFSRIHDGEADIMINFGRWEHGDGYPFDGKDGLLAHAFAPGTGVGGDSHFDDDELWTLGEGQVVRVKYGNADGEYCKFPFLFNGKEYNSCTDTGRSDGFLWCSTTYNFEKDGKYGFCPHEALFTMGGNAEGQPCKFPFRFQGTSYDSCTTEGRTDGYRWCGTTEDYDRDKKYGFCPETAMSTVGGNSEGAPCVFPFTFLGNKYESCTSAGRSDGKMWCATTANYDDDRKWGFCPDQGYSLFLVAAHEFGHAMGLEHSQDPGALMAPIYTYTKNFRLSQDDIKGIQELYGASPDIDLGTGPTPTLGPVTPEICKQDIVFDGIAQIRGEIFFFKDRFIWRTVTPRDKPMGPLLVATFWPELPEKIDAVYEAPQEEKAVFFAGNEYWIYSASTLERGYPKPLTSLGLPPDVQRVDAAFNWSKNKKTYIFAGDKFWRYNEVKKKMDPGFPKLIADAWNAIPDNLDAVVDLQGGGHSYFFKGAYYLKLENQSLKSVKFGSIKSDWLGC
Chain of Ras and Rab interactor 1/Tyrosine-protein kinase ABL1 (P00519 whole entry): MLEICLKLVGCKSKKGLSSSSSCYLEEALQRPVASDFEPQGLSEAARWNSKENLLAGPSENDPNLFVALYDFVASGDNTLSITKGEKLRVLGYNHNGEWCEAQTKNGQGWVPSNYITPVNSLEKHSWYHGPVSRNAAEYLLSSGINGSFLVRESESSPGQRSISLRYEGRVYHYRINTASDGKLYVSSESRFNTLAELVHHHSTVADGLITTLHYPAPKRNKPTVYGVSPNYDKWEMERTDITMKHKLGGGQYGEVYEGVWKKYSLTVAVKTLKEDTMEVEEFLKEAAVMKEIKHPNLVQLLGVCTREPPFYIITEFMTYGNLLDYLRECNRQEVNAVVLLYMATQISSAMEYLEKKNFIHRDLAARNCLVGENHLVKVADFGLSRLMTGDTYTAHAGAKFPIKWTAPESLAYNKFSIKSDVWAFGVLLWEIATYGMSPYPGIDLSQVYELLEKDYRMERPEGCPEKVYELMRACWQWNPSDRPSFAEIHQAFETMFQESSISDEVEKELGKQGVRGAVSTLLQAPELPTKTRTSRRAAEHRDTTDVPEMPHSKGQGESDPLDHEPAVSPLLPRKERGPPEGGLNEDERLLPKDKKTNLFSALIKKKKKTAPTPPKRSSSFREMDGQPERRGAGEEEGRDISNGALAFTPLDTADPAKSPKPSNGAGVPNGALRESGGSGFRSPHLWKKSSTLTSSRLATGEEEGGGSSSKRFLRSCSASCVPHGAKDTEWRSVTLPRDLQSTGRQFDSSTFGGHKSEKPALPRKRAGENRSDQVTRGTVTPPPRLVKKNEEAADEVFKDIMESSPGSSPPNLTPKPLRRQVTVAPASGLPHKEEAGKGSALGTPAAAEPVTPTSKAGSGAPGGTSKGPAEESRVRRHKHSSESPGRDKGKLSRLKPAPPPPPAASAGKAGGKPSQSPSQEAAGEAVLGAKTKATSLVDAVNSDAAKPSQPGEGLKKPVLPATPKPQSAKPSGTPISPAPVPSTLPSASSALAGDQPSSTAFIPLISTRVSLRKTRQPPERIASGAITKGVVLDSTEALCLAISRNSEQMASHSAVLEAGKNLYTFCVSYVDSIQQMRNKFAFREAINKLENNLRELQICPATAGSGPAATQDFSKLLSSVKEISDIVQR
Chain of Ras and Rab interactor 1/Tyrosine-protein kinase ABL1 (Q13671 whole entry): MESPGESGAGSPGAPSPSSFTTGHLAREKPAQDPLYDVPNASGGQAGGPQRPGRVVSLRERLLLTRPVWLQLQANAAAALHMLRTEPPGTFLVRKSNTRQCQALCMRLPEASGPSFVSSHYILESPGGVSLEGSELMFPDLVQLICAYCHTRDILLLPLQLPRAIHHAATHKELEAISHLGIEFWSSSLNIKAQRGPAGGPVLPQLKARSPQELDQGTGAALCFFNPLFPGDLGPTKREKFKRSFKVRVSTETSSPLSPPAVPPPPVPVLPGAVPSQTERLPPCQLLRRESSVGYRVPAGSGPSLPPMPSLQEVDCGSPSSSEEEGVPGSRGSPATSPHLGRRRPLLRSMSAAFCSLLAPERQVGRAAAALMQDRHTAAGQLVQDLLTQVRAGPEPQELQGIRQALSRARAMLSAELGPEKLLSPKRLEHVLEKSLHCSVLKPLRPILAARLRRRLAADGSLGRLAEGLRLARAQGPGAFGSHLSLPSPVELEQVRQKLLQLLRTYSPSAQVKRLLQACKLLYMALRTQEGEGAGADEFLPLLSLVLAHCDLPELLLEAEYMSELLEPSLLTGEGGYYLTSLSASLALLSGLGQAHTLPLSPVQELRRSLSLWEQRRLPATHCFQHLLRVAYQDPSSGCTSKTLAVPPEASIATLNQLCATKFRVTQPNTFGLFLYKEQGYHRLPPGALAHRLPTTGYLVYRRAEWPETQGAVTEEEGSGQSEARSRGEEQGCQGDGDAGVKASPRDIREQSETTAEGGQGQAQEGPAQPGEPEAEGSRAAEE
Chain of Cytochrome P450 2C9 (P11712 whole entry): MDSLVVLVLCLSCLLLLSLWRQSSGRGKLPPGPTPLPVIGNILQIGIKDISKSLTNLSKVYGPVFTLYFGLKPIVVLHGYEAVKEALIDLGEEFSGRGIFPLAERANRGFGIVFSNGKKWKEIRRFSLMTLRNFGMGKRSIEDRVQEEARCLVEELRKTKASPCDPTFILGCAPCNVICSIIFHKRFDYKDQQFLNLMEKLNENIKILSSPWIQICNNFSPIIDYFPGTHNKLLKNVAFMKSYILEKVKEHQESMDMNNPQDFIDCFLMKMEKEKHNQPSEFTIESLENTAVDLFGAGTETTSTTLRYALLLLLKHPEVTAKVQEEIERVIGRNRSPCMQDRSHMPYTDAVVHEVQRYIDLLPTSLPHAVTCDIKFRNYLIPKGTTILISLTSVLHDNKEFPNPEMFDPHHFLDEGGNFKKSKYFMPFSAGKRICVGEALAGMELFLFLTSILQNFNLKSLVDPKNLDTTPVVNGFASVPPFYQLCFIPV

COc1ccc(N2/C(=C/C(C)=O)NC(=O)c3c(C)cc(C)nc32)cc1
IC50 [1]: 35.9 µM (inactive) | IC50 [2]: 8.47 µM (active) | IC50 [3]: 5.42 µM (active)

COC(=O)c1sc(-c2ccc(C(C)(C)C)cc2)cc1NC(=O)COCC(=O)O
EC50 [4]: > 53 µM (inactive) | IC50 [5]: > 20 µM (inactive) | IC50 [6]: 11 µM (active)

O=C(Nc1ccccc1C(=O)Nc1nccs1)c1ccccc1
IC50 [1]: 26.4 µM (inactive) | IC50 [2]: 9.83 µM (active) | IC50 [3]: 9.51 µM (active)

O=C(N[C@@H]1CC[C@@H](CCn2cc(-c3ccccn3)nn2)O[C@H]1CO)c1ccncc1
AC50 [7]: 72.8 µM (active)

Cc1cccc(C)c1NC(=O)C(c1ccc(C(F)(F)F)cc1)n1c(=O)c(-c2ccco2)nc2ccccc21 (stereo not given)
IC50 [8]: 2.56 µM (active)

COc1ccc(OCc2cn(CC(=O)c3ccc(O)cc3)nn2)cc1
IC50 [8]: 6 µM (active)

Cc1nc(Nc2cccc(O)c2)c2c3c(sc2n1)CCC3
IC50 [9]: > 73.5 µM (inactive) | CC50 [10]: 12.7 µM (active)

COc1cc(/C=N/Nc2nn3cnnc3c3ccccc23)ccc1O
IC50 [11]: 64.2 µM (active) | CC50 [12]: 100 µM (active)

Cc1cc([N+](=O)[O-])ccc1NC(=O)CSc1nnc(C)n1C
IC50 [1]: 35.8 µM (inactive) | IC50 [2]: 11.9 µM (inactive) | IC50 [3]: 11.9 µM (inactive)

C=Cc1ccc(Cn2c(C(=O)O)c(C=O)c3ccccc32)cc1
IC50 [13]: 12.6 µM (active) | IC50 [14]: > 100 µM (inactive) | IC50 [15]: 39.1 µM (active)

O=C(NNc1ccccn1)C(=O)NNS(=O)(=O)c1ccc(F)cc1
AC50 [7]: 122 µM (active) | EC50 [16]: > 300 µM (inconclusive) | EC50 [17]: > 300 µM (not active)

CC(C)(C)OC(=O)N1CCC(c2cc(O)n3ncc(C(=O)NC4CCCC4)c3n2)CC1
EC50 [4]: > 53 µM (inactive) | IC50 [5]: 9.87 µM (active) | IC50 [6]: 6.5 µM (active)

Oc1nc2ccccc2n1C1CCN(C(c2nnnn2-c2ccc3c(c2)OCCO3)C2CC2)CC1 (stereo not given)
IC50 [9]: 40.9 µM (inactive)

O=C(OCC(=O)c1c[nH]c2ccccc12)c1ccc(OC(F)F)cc1
IC50 [18]: 83.3 µM (inactive)

COc1cccc(CN2CCN(Cc3cc(OC)c(OC)cc3[N+](=O)[O-])CC2)c1.O=C(O)C(=O)O
EC50 [4]: > 53 µM (inactive) | AC50 [19]: > 150 µM (inactive) | IC50 [11]: 56.8 µM (active) | AC50 [20]: inconclusive | AC50 [21]: 14.1 µM (inconclusive) | IC50 [6]: > 47.1 µM (inactive)

O=S(=O)(N[C@@H]1CC[C@H](CCn2cc(-c3ccccn3)nn2)O[C@@H]1CO)c1cccc(F)c1
AC50 [7]: 79.4 µM (active)

CCc1ccc(OCC(=O)NNC(=O)c2cc(S(=O)(=O)N(C)C)ccc2N2CCCC2)cc1
IC50 [13]: 47 µM (active) | IC50 [14]: 23.6 µM (active) | IC50 [15]: > 100 µM (inactive)
